Biological target: T1, human mAChR M4 (Homo sapiens, UniProt P08173)
T1 construct: expressed in transfected cells
T1 sequence (P08173 1-479): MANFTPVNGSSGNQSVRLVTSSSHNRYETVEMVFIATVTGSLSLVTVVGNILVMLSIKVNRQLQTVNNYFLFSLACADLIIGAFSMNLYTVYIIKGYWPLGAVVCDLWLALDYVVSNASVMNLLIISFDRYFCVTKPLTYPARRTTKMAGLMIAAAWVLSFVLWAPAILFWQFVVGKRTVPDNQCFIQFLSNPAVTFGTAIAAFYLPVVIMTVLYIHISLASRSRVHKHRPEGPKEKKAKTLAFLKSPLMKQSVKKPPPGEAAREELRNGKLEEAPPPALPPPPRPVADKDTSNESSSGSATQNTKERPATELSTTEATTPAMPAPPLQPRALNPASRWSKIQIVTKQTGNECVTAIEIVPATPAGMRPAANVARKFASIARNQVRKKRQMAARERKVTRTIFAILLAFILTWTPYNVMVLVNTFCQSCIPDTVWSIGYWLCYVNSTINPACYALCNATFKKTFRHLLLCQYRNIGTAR
Test: mAChR M4 cell-based functional assay (calcium mobilization, CHO-K1 hM4-Gqi5 cells)
Conditions: for Emax at 30 µM: CHO-K1, % ACh maximum at 30 μM, human M4; for EC50: positive allosteric modulator activity, increase in the EC20 acetylcholine response, CHO-K1 hM4-Gqi5 cells, read-out: Human M4 EC50
In short: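 CHO-K1 cells stably expressing human M4 with chimeric Gqi5, loaded with Fluo-4 AM; compounds given as 11-point 1:3 curves and calcium flux read on FDSS at 1 Hz. Acetylcholine EC20 added at 144 s, EC80 at 230 s; agonist, PAM (EC20 potentiation) and antagonist (EC80 inhibition) EC50/Emax from four-parameter fits.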

SMILES	Emax at 30 µM [%]	EC50 [nM]
Cc1cnccc1Nc1cnc2c(c1)CN(c1nnc(C#N)c(C)c1C)CC2 [Example 618, 4,5-dimethyl-6-(3-((3-methylpyridin-4-yl)amino)-7,8-dihydro-1,6-naphthyridin-6(5)-yl)pyridazine-3-carbonitrile]	74	391
Cc1cc(C#N)nnc1N1CCc2ncc(C(F)(F)F)cc2C1 [Example 304, 5-methyl-6-(3-(trifluoromethyl)-7,8-dihydro-1,6-naphthyridin-6(5H)-yl)pyridazine-3-carbonitrile]	93	676
Cc1cc(C)n(-c2cnc3c(c2)CN(c2ncc(C#N)cc2C)CC3)n1 [Example 346, 6-(3-(3,5-dimethyl-1H-pyrazol-1-yl)-7,8-dihydro-1,6-naphthyridin-6(5H)-yl)-5-methylnicotinonitrile]	88	1300
Cc1cc(CNC(=O)c2cnc(N3CCc4ncccc4C3)c(C)c2)ccn1 [compound 129, 6-(7,8-dihydro-5H-1,6-naphthyridin-6-yl)-5-methyl-N-[(2-methyl-4-pyridyl)methyl]pyridine-3-carboxamide]	61	3340
Cc1c(C#N)nnc(N2CCc3ncc(Nc4cccc(Cl)c4F)cc3C2)c1C [Example 36]	66	698
Cc1cc(C(=O)NCc2cccnc2)cnc1N1CCc2ncc(-c3cn(C)nc3C)cc2C1 [Example 457, 6-(3-(1,3-dimethyl-1H-pyrazol-4-yl)-7,8-dihydro-1,6-naphthyridin-6(5H)-yl)-5-methyl-N-(pyridin-3-ylmethyl)nicotinamide]	85	576
Cc1cc(C#N)cnc1N1CCc2ncc(C3CCOC3)cc2C1 (stereo not drawn) [Example 395, 5-methyl-6-(3-(tetrahydrofuran-3-yl)-7,8-dihydro-1,6-naphthyridin-6(5H)-yl)nicotinonitrile]	90	389
Cc1cc(C#N)nnc1N1CCc2ncc(-c3c(C)noc3C)cc2C1 [Example 401, 6-(3-(3,5-dimethylisoxazol-4-yl)-7,8-dihydro-1,6-naphthyridin-6(5H)-yl)-5-methylpyridazine-3-carbonitrile]	76	522
Fc1ncccc1Nc1cnc2c(c1)CN(c1nc(Cl)nc3c1COC3)CC2 [compound 289, 6-(2-chloro-5,7-dihydrofuro[3,4-d]pyrimidin-4-yl)-N-(2-fluoropyridin-3-yl)-5,6,7,8-tetrahydro-1,6-naphthyridin-3-amine]		918
Cc1nn(C)cc1-c1cnc2c(c1)CN(c1nc(N3CCN(C)CC3)nc(C)c1C)CC2 [compound 275, 3-(1,3-dimethyl-1/-pyrazol-4-yl)-6-(5,6-dimethyl-2-(4-methylpiperazin-1-yl)pyrimidin-4-yl)-5,6,7,8-tetrahydro-1,6-naphthyridine]	86	981
Cc1cc(C(=O)NCC(C)(C)O)cnc1N1CCc2ncc(-c3cn(C)nc3C)cc2C1 [Example 461, 6-(3-(1,3-dimethyl-1H-pyrazol-4-yl)-7,8-dihydro-1,6-naphthyridin-6(5H)-yl)-N-(2-hydroxy-2-methylpropyl)-5-methylnicotinamide]	76	4100
Cc1cnc2c(c1)CN(c1nnc(C(=O)NCc3ccncc3C)c(C)c1C)CC2 [Example 472, 4,5-dimethyl-6-(3-methyl-7,8-dihydro-1,6-naphthyridin-6(5H)-yl)-N-((3-methylpyridin-4-yl)methyl)pyridazine-3-carboxamide]	99	71
Cc1nc(C)c(C)c(N2CCc3ncc(-c4ccc(F)nc4)cc3C2)n1 [compound 229, 3-(6-fluoropyridin-3-yl)-6-(2,5,6-trimethylpyrimidin-4-yl)-5,6,7,8-tetrahydro-1,6-naphthyridine]	59	332
Cc1cc(C(=O)NCc2ccncc2Cl)nnc1N1CCc2ncc(C(F)(F)F)cc2C1 [Example 497, N-((3-chloropyridin-4-yl)methyl)-5-methyl-6-(3-(trifluoromethyl)-7,8-dihydro-1,6-naphthyridin-6(5H)-yl)pyridazine-3-carboxamide]	101	64

Results, then the compound that gave them:

Emax at 30 µM [%]	EC50 [nM]	SMILES
72	714	Cc1cc(C(=O)NCc2ccc(Cl)nc2Cl)cnc1N1CCc2ncc(-c3cn(C)nc3C)cc2C1 [Example 462, N-((2,6-dichloropyridin-3-yl)methyl)-6-(3-(1,3-dimethyl-1H-pyrazol-4-yl)-7,8-dihydro-1,6-naphthyridin-6(5H)-yl)-5-methylnicotinamide]
98	65	Cc1nc(Cl)c(C)c(N2CCc3ncc(Nc4ccnn4C)cc3C2)n1 [compound 212, 6-(6-chloro-2,5-dimethylpyrimidin-4-yl)-N-(1-methyl-1H-pyrazol-5-yl)-5,6,7,8-tetrahydro-1,6-naphthyridin-3-amine]
87	324	Cc1cc(C(=O)NCc2ccncc2)cnc1N1CCc2ncc(Nc3ccnn3C)cc2C1 [Example 473, 5-methyl-6-(3-((1-methyl-1H-pyrazol-5-yl)amino)-7,8-dihydro-1,6-naphthyridin-6(5H)-yl)-N-(pyridin-4-ylmethyl)nicotinamide]
86	362	Cc1cc(C#N)cnc1N1CCc2ncc(-c3cnn(CC4CC4)c3)cc2C1 [compound 102, 6-[3-[1-(cyclopropylmethyl)pyrazol-4-yl]-7,8-dihydro-5H-1,6-naphthyridin-6-yl]-5-methyl-pyridine-3-carbonitrile]
98	187	Cc1cc(C#N)cnc1N1CCc2ncc(-c3cccnc3)cc2C1 [compound 191, 5-methyl-6-[3-(3-pyridyl)-7,8-dihydro-5H-1,6-naphthyridin-6-yl]pyridine-3-carbonitrile]
101	191	Cc1nn(C)c(C)c1-c1cnc2c(c1)CN(c1nnc(C#N)c(C)c1C)CC2 [Example 296, 4,5-dimethyl-6-(3-(1,3,5-trimethyl-1H-pyrazol-4-yl)-7,8-dihydro-1,6-naphthyridin-6(5H)-yl)pyridazine-3-carbonitrile]
38	292	Cc1cc2c(nc1N1CCc3ncc(C(F)(F)F)cc3C1)OCCN(Cc1ccccc1)C2=O [Example 592, 4-benzyl-7-methyl-8-(3-(trifluoromethyl)-7,8-dihydro-1,6-naphthyridin-6(5H)-yl)-3,4-dihydropyrido[3,2-f][1,4]oxazepin-5(2H)-one]
98	84.1	Cc1cc(C#N)cnc1N1CCc2ncc(-c3cncs3)cc2C1 [compound 95, 5-methyl-6-(3-thiazol-5-yl-7,8-dihydro-5H-1,6-naphthyridin-6-yl)pyridine-3-carbonitrile]
86	1020	Cc1cnccc1Nc1cnc2c(c1)CN(c1nnc(C#N)cc1C)CC2 [Example 619, 5-methyl-6-(3-((3-methylpyridin-4-yl)amino)-7,8-dihydro-1,6-naphthyridin-6(5H)-yl)pyridazine-3-carbonitrile]
